Where “and” joins values, the source holds several entries; their conditions need not be identical. Equal values may be shown once.

The text below walks through data of patent US7846434B2, “Materials and methods for improved immunoglycoproteins” (Trubion Pharmaceuticals, Inc., priority 2006, dated 2010).

The subject of one assay is BJAB B cells. Nature of the assay: ADCC, 51Cr-labeled BJAB B cells with human PBMC effectors. The class given is cell-based. The method, then:
To determine the ADCC activity of purified TRU-016, labeled BJAB B cells were used as targets and human peripheral blood mononuclear cells (PBMC) as effector cells. BJAB B cells (10^7 cells) were labeled with 500 μCi/mL ^51Cr sodium chromate for 2 hours at 37° C. in IMDM/10% FBS. PBMCs were isolated from heparinized, human whole blood by fractionation over Lymphocyte Separation Media (LSM, ICN Biomedical) gradients. Reagent samples were added to RPMI media with 10% FBS and serial dilutions of each reagent were prepared. The ^51Cr labeled BJAB were added at 2×10^4 cells/well. The PBMCs were then added at 5×10^5 cells/well for a final ratio of 25:1 effectors (PBMC):targets (BJAB). Reactions were set up in quadruplicate wells of a 96 well plate. Reactions were allowed to proceed for 6 hours at 37° C. in 5% CO2 prior to harvesting and counting. CPM released was measured on a Packard TopCounNXT from 50 μl dried culture supernatant. Percent specific killing was calculated by subtracting (cpm [mean of quadruplicate samples] of sample−cpm spontaneous release)/(cpm maximal release−cpm spontaneous release)×100, and data were plotted as % specific killing versus TRU-016 concentration.

Assay [1] has as its system DG44 CHO cells transfected with TRU-016. Nature of the assay: Effect of castanospermine on DG44 CHO TRU-016 production, 3 L bioreactors. Type of assay: cell-based, Chinese hamster. Conditions: for TRU-016 Produced as a % of Control: control average 427.7 ug/mL; for Viability at Harvest (%): harvest day 8. How it is done: Prior to growth in bioreactors, DG44 CHO cells transfected with TRU-016 were grown in the absence of castanospermine in vented shake flasks as described in Example 8.
For the bioreactor run, 3 L Applikon bioreactors were used. Growth media for cells was as described in Example 8 except that there was no methotrexate present. Starting culture volume for each bioreactor was 1700 mLs with a starting density of 3.5×10^5 cells/mL. A total of eight bioreactors were run in pairs with CS at 0 μM, 300 μM, 350 μM and 400 μM final concentration (one of the 400 μM CS bioreactors was lost to contamination on day 2 of culture). Castanospermine was added at the initiation of culture in the bioreactors with no further addition during the culture period. Other culture conditions included a temperature set point of 37° C., pH set point of 6.9 and dissolved O2 set point of 50%. Bioreactors were run in a fed-batch mode with L-glutamine and glucose added on an as needed basis. Soy hydrolysate (CHO Feed Bioreactor Supplement—C1615—Sigma) was added at 1% of starting culture volume on days 2, 4 and 6. Bioreactors were sampled daily for viable cell density, percent viable cells, media chemistries and osmolality. All cultures were harvested on day 8 when overall cell viability ranged from 39-50%.

For another assay, the system named is CD16 (Fcγ RIII). Nature of the assay: Binding of SMIP bound on WIL2-S cells to soluble FcγR-MIg fusion (CD16), flow cytometry. A general note: Flow cytometry measures light scatter and fluorescence of single cells or particles in a stream.
Another assay relates to CD37. Nature of the assay: Binding of TRU-016 to CD37 expressing Daudi cells. The arrangement: species or system human. The method, then: The cells are then incubated with a FITC-conjugated goat anti-human IgG Fc specific antibody (Caltag H10501). This antibody will bind to the Fc region of the human IgG chain of TRU-016 bound to the cells. The antibody is diluted 1:50 in FACS buffer and 100 μL is added to each well. The plate is incubated at 4° C. in the dark for 45 minutes. Any unbound FITC-labeled antibody is removed by adding 100 μL of FACS buffer to each well, centrifuging at 250×g for 3 minutes at 15° C. followed by removal of supernatant. This is followed by a second wash with 200 μL/well FACS buffer. The cells are resusupended with 200 μL/well 2% paraformaldehyde and stored at 4° C. overnight. Each sample's bound fluorescence is measured on a BD FACSCalibur flow cytometry system and analyzed using Cell Quest Pro software (Becton Dickinson, ver 5.2). The GeoMean fluorescence intensity for each sample is plotted relative to the TRU-016 concentration. A dose response curve is generated and fit to a 4-parameter logistic (4-PL) curve using the SoftMax Pro software (Molecular Devices, ver 5.0.1). Titrations of TRU-016 are utilized to create a dose response curve of the untreated control and CS treated samples for comparison.

Protocol for CD16 (Fcγ RIII): The assays were carried out as follows. […] The cells were then incubated with the desired FcγR-MIg fusion in the same diluent at a concentration of 1 μg/ml on ice for 45 minutes.
The complexes (WIL2-S cells/SMIP/FcγR-MIg) were then incubated with PE conjugated AffiniPure F(Ab′)2 Goat Anti-Mouse IgG [Jackson Immunoresearch] (a mouse Fc-specific antibody with minimal cross reactivity with human Fc) at a 1:100 dilution. The cells were analyzed by one-color flow cytometry on a FACsCalibur using CellQuest software (Becton Dickinson).
If TRU-016 supernatants from Example 2 were used in this assay instead of purified TRU-016 protein, the SMIP concentration in the supernatant was quantified by direct staining of WIL2-S cells with diluted supernatant along with a TRU-016 standard. TRU-016 was detected by staining with FITC conjugated F(Ab′)2 Goat Anti-Human (gamma) [Caltag H10101] at a 1:50 dilution.

`O[C@H]1[C@H](O)[C@@H](O)CN2CC[C@H](O)[C@H]12` [castanospermine]: the “ADCC activity of TRU-016 purified protein (% specific killing)” value in the assay on BJAB B cells (0, 10, 25, 50, 100 or 200 μM castanospermine in culture media) is “dose-dependent increase”. Also, the “ADCC activity of TRU-015 purified protein (% specific killing)” value with BJAB B cells (0-100 μg/mL castanospermine in culture media, PBMC from high affinity (V/V158) and low affinity (F/F158) CD16 donors) was “dose-dependent increase”. The “ADCC of TRU-016 purified protein (% specific killing)” value in the assay with BJAB B cells (culture media containing 200 μM DMJ, 10 μM kifenunsine or 200 μM castanospermine) was “improved”. Further, in assay [1] (CS 300 μM, listed as CS), the “TRU-016 Produced as a % of Control” value was 68.0% and 75.1%; the “Viability at Harvest (%)” value was 48.8% and 42.4%; the “ICA (10^6 cells * days/mL)” value was 47.5 10^6 cells * days/mL and 46.2 10^6 cells * days/mL; the “Specific Productivity (pg/cell/day)” value was 6.12 pg/cell/day and 6.96 pg/cell/day. The “TRU-016 Produced” value in assay [1] (CS 300 μM, listed as CS) is 291.0 µg/mL and 321.3 µg/mL. Also, in assay [1] (CS 350 μM, listed as CS), the “TRU-016 Produced as a % of Control” value was 73.6% and 74.4%; the “Viability at Harvest (%)” value is 39.0% and 41.6%; the “ICA (10^6 cells * days/mL)” value was 46.6 10^6 cells * days/mL and 45.5 10^6 cells * days/mL; the “Specific Productivity (pg/cell/day)” value is 6.75 pg/cell/day and 7.00 pg/cell/day. Besides, the “TRU-016 Produced” value in assay [1] (CS 350 μM, listed as CS) is 314.7 µg/mL and 318.1 µg/mL. In addition, in assay [1] (CS 400 μM), the “ICA (10^6 cells * days/mL)” value is recorded as 47.9 10^6 cells * days/mL, the “Specific Productivity (pg/cell/day)” value came out at 6.49 pg/cell/day, the “TRU-016 Produced” value is 311.0 µg/mL and the “TRU-016 Produced as a % of Control” value was determined as 72.7%. The “Viability at Harvest (%)” value in assay [1] (CS 400 μM) is listed as 50.4%. Besides, the “suppression of TRU-016 production relative to non-treated control bioreactors” value in assay [1] (CS 300-400 μM) was 24.9-32%. Also, the “cell growth and viability in the bioreactors” value in assay [1] (CS 300-400 μM vs no CS) was “quite comparable”. Moreover, the “CD16 binding of Protein A-purified TRU-016 (mean fluorescence intensity)” value with CD16 (Fcγ RIII) (CHO cells cultured with 0, 10, 25, 50, 100 or 200 μM castanospermine) is “dose-dependent increase”. The “CD16 binding of TRU-015 purified protein (geometric mean fluorescence intensity)” value with CD16 (Fcγ RIII) (low affinity allele, CHO cells cultured with 0, 2, 5, 10, 30 or 100 μg/mL castanospermine) was “dose-dependent increase”. In addition, the “binding of TRU-016 to CD37 expressing cells (dose response curves)” value in the assay on CD37 (CHO-K1 produced glycovariants vs control) is “did not alter”. The “binding of TRU-016 to CD37 expressing cells (dose response curves)” value in the assay with CD37 (DG44 CHO produced, all CS treated samples vs untreated) is listed as “did not alter”.
